Structures are written as SMILES.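 The compound was tested at five concentrations on cells cultured in 96-well plates, with a 48-hour exposure period. Definition used: TGI = concentration required for complete inhibition of growth.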

Among the test systems are COLO 205 colon; EKVX NSCLC; HCT-116 colon; HOP-92 NSCLC; IGROV1 ovarian; NCI-H23 lung; PC-3 prostate; RXF 393 renal; SK-MEL-28 melanoma; SK-MEL-5 melanoma.
Holding throughout (assay): NCI anticancer screen, dose series, 48 h

Take `COC(=O)[C@]1(C)CCC[C@@]2(C)C1CC[C@]13C=C(C(C)C)[C@H](CC21)CC3(Cl)C#N` (stereo not given in full): the TGI was above 100 µM in the experiment on COLO 205 colon; 77.3 µM with EKVX NSCLC; above 100 µM with HCT-116 colon; above 100 µM in the experiment on HOP-92 NSCLC; above 100 µM with IGROV1 ovarian; above 100 µM with NCI-H23 lung. Besides, the TGI in the experiment with PC-3 prostate is above 100 µM; in the experiment with RXF 393 renal it was 97.5 µM; with SK-MEL-28 melanoma it was above 100 µM; with SK-MEL-5 melanoma, above 100 µM.
For the compound `Cc1ccc2c(c1C)C(=O)C1(Cc3cc4c(cc3C1=O)CCC4)C2` (stereo not given), the TGI with COLO 205 colon, in the experiment with EKVX NSCLC, with HCT-116 colon, in the experiment on HOP-92 NSCLC, in the experiment on IGROV1 ovarian and in the experiment on NCI-H23 lung was above 100 µM throughout. In addition, the TGI with PC-3 prostate, in the experiment with RXF 393 renal, in the experiment with SK-MEL-28 melanoma and with SK-MEL-5 melanoma was above 100 µM each time.
Turning to `O=c1ccc2ccc(S)cc2o1`, the TGI with COLO 205 colon, with EKVX NSCLC, in the experiment on HCT-116 colon, in the experiment on HOP-92 NSCLC, in the experiment with IGROV1 ovarian and with NCI-H23 lung was above 100 µM each time. The TGI with PC-3 prostate, with RXF 393 renal, with SK-MEL-28 melanoma and with SK-MEL-5 melanoma was above 100 µM in each case.

Values taken from PubChem BioAssay (NCI).
